# Test results published in US20260234165A1, “MACROCYCLIC COMPOUNDS, PREPARATION METHOD THEREFOR, AND USE THEREOF” (GENFLEET THERAPEUTICS (SHANGHAI) INC., priority 2004, published 2026).
# Read-outs that look alike come from different tables or passages of the source.
# Assay: Pharmacokinetic study in rats
# Format: in vivo, Sprague-Dawley (SD) rats
# Conditions: male SD rats; for clearance / CL: IV; for AUC / Cmax: PO (intragastric), dose 10 mg/kg
# Text: A total of 6 healthy adult male Sprague-Dawley (SD) rats were provided by Zhejiang Vital River Laboratory Animal Technology Co., Ltd. For each test compound, 6 healthy adult male SD rats were selected and randomly divided into 2 groups: an intravenous administration (IV) group and an intragastric administration (PO) group. The LC-MS/MS method was used to determine the drug concentrations in the plasma of rats at different time points after intravenous and intragastric administration of the test compounds. This experiment was intended to investigate the pharmacokinetic performance of the test compounds in rats and to evaluate the pharmacokinetic characteristics. Each drug used in the experiment was prepared from the test compound powder: An appropriate amount of test compound powder was weighed out, and appropriate amounts of DMSO, a 10% aqueous Solutol HS 15 solution, and a 6% aqueous HP-β-CD solution were sequentially added according to a volume ratio of 5:10:85. The mixture was vortexed and sonicated until clarification. The final concentration of the drug in the IV group was 0.5 mg/mL, and the final concentration of the drug in the PO group was 1 mg/mL; the concentrations could be adjusted according to actual needs. For the drug in the PO group of Z504, an appropriate amount of test compound powder was weighed out, and an appropriate amount of 0.5% MC+0.2% Tween 80 aqueous solution was added. The mixture was well mixed by vortexing to give a 1 mg/mL homogeneous suspension: the concentration could be adjusted according to actual needs.
# All experimental rats were fasted overnight, and food intake was resumed 4 h after administration. For the rats in the IV group, the administration volume was set at 2 mL/kg, with Z554 and Z915 administered at a dose of 0.5 mg/kg and the other compounds at a dose of 1 mg/kg. For the rats in the PO group, the administration volume was 10 mL/kg and the dose was 10 mg/kg. The administration amount was adjusted according to the body weight of the rats on the day of administration. In the experiment, blood samples were collected from the rats in the IV group at multiple time points (0.0833 h, 0.25 h, 0.5 h, 1 h, 2 h, 4 h, 7 h, and 24 h) after administration, while blood samples were collected from the PO group at 0.25 h, 0.5 h, 1 h, 2 h, 4 h, 7 h, and 24 h after administration, with approximately 100 μL collected each time via the orbital blood collection method.
# The blood samples were placed in centrifuge tubes containing EDTA-K2 and centrifuged at 8000 rpm for 4 min within 30 min to separate the supernatant plasma. The resulting plasma samples were stored at −20° C. for later use. For sample analysis, 20 μL of each of plasma samples and calibration standards was added to a 96-well plate, and 160 μL of acetonitrile containing 100 ng/mL tolbutamide was added. The samples were vortexed for 5 min for uniform mixing, and then centrifuged at 4000 rpm for 15 min. After the centrifugation was completed, 50 μL of supernatant was added to a 96-well plate containing 150 μL of deionized water. The plate was then sealed and shaken for uniform mixing. Sample analysis was performed by LC-MS/MS.
# The sampling volume could be adjusted according to actual needs, but the final concentration should be kept unchanged.
# [1] = Sprague-Dawley, rat, plasma, dose 1 mg/kg
# [2] = Sprague-Dawley, rat, plasma, read-out: AUC
# [3] = Sprague-Dawley, rat, plasma, read-out: Cmax
# [4] = Sprague-Dawley, rat, plasma, dose 0.5 mg/kg
Structure (SMILES),clearance [1],AUC [2],Cmax [3],CL (dose 1 mg/kg),AUC,Cmax,clearance [4]
"CCn1c(-c2cc(C#C[C@@H]3COCCN3C)cnc2[C@H](C)OC)c2c3cc(ccc31)-c1csc(n1)C[C@H](NC(=O)[C@H]1[C@H](C)[C@@H]1C)C(=O)N1CCC[C@H](N1)C(=O)OCC(C)(C)C2 (atropisomer, axis not shown; (Ra)) [Compound Z672, (1r,2R,3S)—N-((6^3S,4S,Z)-1^1-ethyl-(Ra)-1^2-(2-((S)-1-methoxyethyl)-5-(((R)-4-methylmorpholin-3-yl)ethynyl)pyridin-3-yl)-10,10-dimethyl-5,7-dioxo-6^1,6^2,6^3,6^4,6^5,6^6hexahydro-1^1H-8-oxa-2(4,2)-thiazola-1(5,3)-indola-6(1,3)-pyridazinacycloundecaphane-4-yl)-2,3-dimethylcyclopropane-1-carboxamide]",11.8 mL/min/kg,2940 ng·h/mL,738 ng/mL,–,–,–,–
"CCn1c(-c2cc(C#CCN3C4CCC3COC4)cnc2[C@H](C)OC)c2c3cc(ccc31)-c1csc(n1)C[C@H](NC(=O)[C@H]1[C@H](C)[C@@H]1C)C(=O)N1CCC[C@H](N1)C(=O)OCC(C)(C)C2 (atropisomer, axis not shown; (Ra)) [Compound Z711, (1r,2R,3S)—N-((6^3S,4S,Z)—(Ra)-1^2-(5-(3-(3-oxa-8-azabicyclo[3.2.1]octan-8-yl)prop-1-yn-1-yl)-2-((S)-1-methoxyethyl)pyridin-3-yl)-1^1-ethyl-10,10-dimethyl-5,7-dioxo-6^1,6^2,6^3,6^4,6^5,6^6-hexahydro-1^1H-8-oxa-2(4,2)-thiazola-1(5,3)-indola-6(1,3)-pyridazinacycloundecaphane-4-yl)-2,3-dimethylcyclopropane-1-carboxamide]",–,–,–,3.82 mL/min/kg,8876 ng·h/mL,1867 ng/mL,–
"CCn1c(-c2cc(C#CCN3CCC(C(F)(F)F)CC3)cnc2[C@H](C)OC)c2c3cc(ccc31)-c1csc(n1)C[C@H](NC(=O)[C@H]1[C@H](C)[C@@H]1C)C(=O)N1CCC[C@H](N1)C(=O)OCC(C)(C)C2 (atropisomer, axis not shown; (Ra)) [Compound Z778]",5.31 mL/min/kg,4020 ng·h/mL,702 ng/mL,–,–,–,–
"CCn1c(-c2cc(C#CCN(C)CCOC)cnc2[C@H](C)OC)c2c3cc(ccc31)-c1csc(n1)C[C@H](NC(=O)[C@H]1[C@H](C)[C@@H]1C)C(=O)N1CCC[C@H](N1)C(=O)OCC(C)(C)C2 (atropisomer, axis not shown; (Ra)) [Compound Z788]",–,–,–,3.58 mL/min/kg,8529 ng·h/mL,2110 ng/mL,–
"CCn1c(-c2cc(C#CCN3CCN(C)C(=O)C3)cnc2[C@H](C)OC)c2c3cc(ccc31)-c1csc(n1)C[C@H](NC(=O)[C@H]1[C@H](C)[C@@H]1C)C(=O)N1CCC[C@H](N1)C(=O)OCC(C)(C)C2 (atropisomer, axis not shown; (Ra)) [Compound Z793]",3.16 mL/min/kg,5920 ng·h/mL,2040 ng/mL,–,–,–,–
"CCn1c(-c2cc(C#CCN3CCS(=O)(=O)CC3)cnc2[C@H](C)OC)c2c3cc(ccc31)-c1csc(n1)C[C@H](Nc1nnc3cc(C)ccn13)C(=O)N1CCC[C@H](N1)C(=O)OCC(C)(C)C2 (atropisomer, axis not shown; (Ra)) [Compound Z911, (6^3S,4S,Z)—(Ra)-1^2-(5-(3-(1,1-dioxidothiomorpholino)prop-1-yn-1-yl)-2-((S)-1-methoxyethyl)pyridin-3-yl)-1^1-ethyl-10,10-dimethyl-4-((7-methyl-[1,2,4]triazolo[4,3-a]pyridin-3-yl)amino)-6^1,6^2,6^3,6^4,6^5,6^6-hexahydro-1^1H-8-oxa-2(4,2)-thiazola-1(5,3)-indola-6(1.3)-pyridazinacycloundecaphane-5,7-dione]",0.41 mL/min/kg,2540 ng·h/mL,427 ng/mL,–,–,–,–
"CCn1c(-c2cc(C#CCN3CCCOCC3)cnc2[C@H](C)OC)c2c3cc(ccc31)-c1csc(n1)C[C@H](NC(=O)CC1CC1)C(=O)N1CCC[C@H](N1)C(=O)OCC(C)(C)C2 (atropisomer, axis not shown; (Ra)) [Compound Z915]",–,6840 ng·h/mL,1730 ng/mL,–,–,–,6 mL/min/kg

# The remaining lines, values ahead:
clearance [1],AUC [2],Cmax [3],CL (dose 1 mg/kg),AUC,Cmax,clearance [4],Structure (SMILES)
–,–,–,7.66 mL/min/kg,3259 ng·h/mL,681 ng/mL,–,"CO[C@@H](C)c1ncc(C#CCN2CCCOCC2)cc1-c1c2c3cc(ccc3n1CC(F)(F)F)-c1csc(n1)C[C@H](NC(=O)[C@H]1[C@H](C)[C@@H]1C)C(=O)N1CCC[C@H](N1)C(=O)OCC(C)(C)C2 (atropisomer, axis not shown; (Ra)) [Compound Z700, N-((6^3S,4S,Z)-1^1-(2,2,2-trifluoroethyl)-(Ra)-1^2-(2-((S)-1-methoxyethyl)-(5-(3-(1,4-oxazepan-4-yl)prop-1-yn-1-yl))-pyridin-3-yl)-10,10-dimethyl-5,7-dioxo-6^1,6^2,6^3,6^4,6^5,6^6-hexahydro-1^1H-8-oxa-2(4,2)-thiazola-1(5,3)-indola-6(1,3)-pyridazinacycloundecaphane-4-yl)-2,3-dimethylcyclopropane-1-carboxamide]"
–,–,–,14.9 mL/min/kg,1643 ng·h/mL,401 ng/mL,–,"CCn1c(-c2cc(C#CCN3CCOC[C@H]3C)cnc2[C@H](C)OC)c2c3cc(ccc31)-c1csc(n1)C[C@H](NC(=O)[C@H]1[C@H](C)[C@@H]1C)C(=O)N1CCCC(N1)C(=O)OCC(C)(C)C2 (atropisomer, axis not shown; (Ra)) [Compound Z813]"
2.51 mL/min/kg,3900 ng·h/mL,1400 ng/mL,–,–,–,–,"CCn1c(-c2cc(C#CCN3CCS(=O)(=O)CC3)cnc2[C@H](C)OC)c2c3cc(ccc31)-c1csc(n1)C[C@H](NC(=O)[C@H]1[C@H](C)[C@@H]1C)C(=O)N1CCC[C@H](N1)C(=O)OCC(C)(C)C2 (atropisomer, axis not shown; (Ra)) [Compound Z838, (1r,2R,3S)—N-((6^3S,4S,Z)—(Ra)-1^2-(5-(3-(1,1-dioxidothiomorpholino)prop-1-yn-1-yl)-2-((S)-1-methoxyethyl)pyridin-3-yl)-1^1-ethyl-10,10-dimethyl-5,7-dioxo-6^1,6^2,6^3,6^4,6^5,6^6-hexahydro-1^1H-8-oxa-2(4,2)-thiazola-1(5,3)-indola-6(1,3)-pyridazinacycloundecaphane-4-yl)-2,3-dimethylcyclopropane-1-carboxamide]"
–,–,–,1.14 mL/min/kg,29002 ng·h/mL,4303 ng/mL,–,"CCn1c(-c2cc(C#CCN3CCCOCC3)cnc2C(C)C)c2c3cc(ccc31)-c1csc(n1)C[C@H](NC(=O)[C@H]1[C@H](C)[C@@H]1C)C(=O)N1CCC[C@H](N1)C(=O)OCC(C)(C)C2 (atropisomer, axis not shown; (Sa)) [Compound Z811-2, (1r,2R,3S)—N-((6^3S,4S,Z)—(Sa)-1-(5-(3-(1,4-oxazepan-4-yl)prop-1-yn-1-yl)-2-isopropylpyridin-3-yl)-1^1-ethyl-10,10-dimethyl-5,7-dioxo-6^1,6^2,6^3,6^4,6^5,6^6-hexahydro-1^1H-8-oxa-2(4,2)-thiazola-1(5,3)-indola-6(1,3)-pyridazinacycloundecaphane-4-yl)-2,3-dimethylcyclopropane-1-carboxamide]"
4 mL/min/kg,5320 ng·h/mL,605 ng/mL,–,–,–,–,"CCn1c(-c2cc(C#CCN3CCCOCC3)cnc2[C@H](C)OC)c2c3cc(ccc31)-c1csc(n1)C[C@H](NC(=O)[C@H]1[C@H](C)[C@@H]1C)C(=O)N1CCC[C@H](N1)C(=O)OCC(C)(C)C2 (single isomer, unassigned) [Compound Z504]"
–,16600 ng·h/mL,2780 ng/mL,–,–,–,2.52 mL/min/kg,"CCn1c(-c2cc(C#CCN3CCC3)cnc2[C@H](C)OC)c2c3cc(ccc31)-c1csc(n1)C[C@H](NC(=O)[C@H]1[C@H](C)[C@@H]1C)C(=O)N1CCC[C@H](N1)C(=O)OCC(C)(C)C2 (single isomer, unassigned) [Compound Z554]"
2.46 mL/min/kg,14600 ng·h/mL,3010 ng/mL,–,–,–,–,"CCn1c(-c2cc(C#CCN3CCCOCC3)cnc2[C@H](C)OC)c2c3cc(ccc31)-c1csc(n1)C[C@H](NC(=O)[C@H]1C[C@@H]1C)C(=O)N1CCC[C@H](N1)C(=O)OCC(C)(C)C2 (single isomer, unassigned) [Compound Z604]"
